Laboratory results published in patent US5824665A, “Reduction of hair growth” (priority 1997, dated 1998).

What was measured:
flank organ hair growth = assay: Golden Syrian hamster assay (flank organ hair mass after topical treatment); assay type: in vivo; conditions: thirteen applications
Description: Male intact Golden Syrian hamsters are considered acceptable models for human beard hair growth in that they display oval shaped flank organs, one on each side, each about 8 mm in major diameter, which grow thick black and coarse hair similar to human beard hair. These organs produce hair in response to androgens in the hamster. To evaluate the effectiveness of a composition including a hair growth reducing compound, the flank organs of each of a group of hamsters are depilated by applying a thioglycolate based chemical depilatory (Surgex); alternatively, hair were removed by shaving the flank organs prior to topical treatments. To one organ of each animal 10 μl of vehicle alone once a day is applied, while to the other organ of each animal an equal amount of vehicle containing a hair growth reducing compound is applied. After thirteen applications (one application per day for five days a week), the flank organs are shaved and the amount of recovered hair (hair mass) from each is weighed. Percent-reduction of hair growth is calculated by subtracting the hair mass (mg) value of the test compound treated side from the hair mass value of the vehicle treated side; the delta value obtained is then divided by the hair mass value of the vehicle treated side, and the resultant number is multiplied by 100.
The above-described assay will be referred to herein as the "Golden Syrian hamster" assay. Preferred compositions provide an inhibition in hair growth of at least about 20%, more preferably at least about 40%, and most preferably at least about 60% when tested in the Golden Syrian hamster assay.

hair follicle hexokinase = assay: Hexokinase activity in hair follicle extracts; assay type: biochemical, hamster; conditions: concentration of 1 mM
Experimental: Measurement of the Hexokinase Activity was Performed as Follows
The enzyme hexokinase was extracted from the hamster hair follicles in a buffer containing Tris-HCL (0.25M, pH 8.1), 1.5 mM EDTA and 5.0 mM MgCl2. The extract was prepared in a manner similar to as described above for phosphofructokinase. The following reagents were mixed together and the change in absorbance at 340 nm was monitored to determine enzyme activity--0.5 ml of the Tris buffer, 0.1 ml ATP (5 mM), 0.1 ml phospho(enol)pyruvate and NADH (0.75 mM and 0.2 mM respectively), 0.1 ml of the follicle extract.

[1] = test system: hair follicle phosphofructokinase; assay: Phosphofructokinase activity in hair follicle extracts; assay type: biochemical, hamster
Experimental: The activity of two target enzymes (phosphofructokinase and hexokinase) was determined in hair follicle extracts in the presence or absence of select enzyme inhibitors.
Measurement of Phosphofructokinase Activity in Hair Follicle Extracts
Hair follicles from hamster flank organs were excised and an enzyme extract was prepared in a buffered mixture containing 75 mM Tris-HCL, 3 mM MgCl2, and 15 mM (NH4)2 SO4, pH 7.5, using a sonication device. The follicle extracts were passed through a 10,000 molecular weight cut off filter by centrifugation at 12,000 x g. The unfiltered extract was transferred to another filter and a 100 ul aliquot of the magnesium buffer was added. The sample was centrifuged again under similar conditions. This procedure was repeated two additional times.
The washed extract was removed from the insert cup and assayed for phosphofructokinase activity according to the following procedure. The extract was mixed with a solution containing 2.0 ml of the magnesium buffer, 0.1 ml of fructose 6-phosphate (30 mM), 0.1 ml ATP (15 mM), 0.1 ml NADH (1.5 mM), 0.3 ml of mercatopethanol (0.1M), 0.3 ml an auxiliary enzyme mixture made up of aldose (10 units/ml), triosephosphate isomerase (8 units/ml), and α-glycerophosphate dehydrogenae (4 units/ml) in 25 mM Tris-HCI (pH 7.5). […] Change in absorbance at UV 340 nm was used to determine the enzyme activity.

[2] = 10% concentration in vehicle, topical 10 μl once a day, vehicle and pH per compound as in the Table
[3] = 10% concentration in vehicle, topical 10 μl once a day, vs vehicle treated side
[4] = 4.4% concentration, vehicle A pH 7.0, topical
[5] = 15.0% concentration, vehicle G pH 7.0, topical
[6] = 7.5% concentration, vehicle C pH 8.5, topical

6-Amino-6-deoxy glucose
Hair Mass (mg) ± SEM, Treated (flank organ hair growth; [2]): 0.77 ± .15 mg
% Inhibition (hair growth) (flank organ hair growth; [3]): 59 ± 6%
inhibition of the hair follicle hexokinase activity (hair follicle hexokinase): 46%

O=C(O)C1(O)CC1 [1-Hydroxy-1-cyclopropanecarboxylic acid]
Hair Mass (mg) ± SEM, Treated (flank organ hair growth; [2]): 1.80 ± .20 mg
% Inhibition (hair growth) (flank organ hair growth; [3]): 22 ± 9%

O=CC[C@@H](O)[C@H](O)[C@H](O)CO [2-Deoxyglucose]
Hair Mass (mg) ± SEM, Treated (flank organ hair growth; [2]): 0.96 ± .16 mg
% Inhibition (hair growth) (flank organ hair growth; [3]): 38 ± 7%

O=C(O)C(=O)CF [3-Fluoropyruvic acid]
Hair Mass (mg) ± SEM, Treated (flank organ hair growth; [2]): 1.14 ± .09 mg
% Inhibition (hair growth) (flank organ hair growth; [3]): 40 ± 5%

Nc1ncnc2c1ncn2[C@@H]1O[C@H](COC(=O)c2ccc(S(=O)(=O)F)cc2)[C@@H](O)[C@H]1O [5'-p-Flurosuflonylbenzoyl adenosine]
% Inhibition (hair growth) (flank organ hair growth; [4]): 60 ± 3%
Hair Mass (mg) ± SEM, Treated (flank organ hair growth; [4]): 0.74 ± .05 mg

O=C[C@H](O)[C@@H](O)[C@H](O)[C@H](S)CO [5-Thio-D-glucose]
Hair Mass (mg) ± SEM, Treated (flank organ hair growth; [2]): 1.32 ± .20 mg
% Inhibition (hair growth) (flank organ hair growth; [3]): 49 ± 6%

CCCCCCCCCCCCCCCCC(C(=O)O)C(O)(CC(=O)O)C(=O)O (centres unmarked) [Argaric acid]
Hair Mass (mg) ± SEM, Treated (flank organ hair growth; [2]): 0.97 ± .14 mg
% Inhibition (hair growth) (flank organ hair growth; [3]): 52 ± 4%
inhibition of the hair follicle phosphofructokinase activity ([1]; concentration of 0.15 mM): 76%

O=C(O)C(=O)CBr [Bromopyruvic acid]
Hair Mass (mg) ± SEM, Treated (flank organ hair growth; [2]): 1.10 ± .11 mg
% Inhibition (hair growth) (flank organ hair growth; [3]): 58 ± 6%

O=C(O)[C@H](O)COP(=O)(O)O [D(-)3-Phosphoglyceric acid]
Hair Mass (mg) ± SEM, Treated (flank organ hair growth; [2]): 2.27 ± .22 mg
% Inhibition (hair growth) (flank organ hair growth; [3]): 21 ± 7%

O=C(O)c1cc(=O)c2ccccc2[nH]1 [Kynurenic acid]
Hair Mass (mg) ± SEM, Treated (flank organ hair growth; [2]): 0.98 ± .09 mg
% Inhibition (hair growth) (flank organ hair growth; [3]): 64 ± 4%

N[C@@H]1C(O)O[C@H](CO)[C@@H](O)[C@@H]1O (some centres unmarked) [Mannosamine]
Hair Mass (mg) ± SEM, Treated (flank organ hair growth; [2]): 0.71 ± .13 mg
% Inhibition (hair growth) (flank organ hair growth; [3]): 68 ± 6%
inhibition of the hair follicle hexokinase activity (hair follicle hexokinase): 100%

CC(=O)N[C@H]1[C@@H](O)[C@H](O)[C@@H](CO)O[C@H]1O [N-Acetyl-β-D-mannosamine]
Hair Mass (mg) ± SEM, Treated (flank organ hair growth; [2]): 0.79 ± .15 mg
% Inhibition (hair growth) (flank organ hair growth; [3]): 65 ± 7%
inhibition of the hair follicle hexokinase activity (hair follicle hexokinase): 100%

Cc1ccc(S(=O)(=O)N[C@@H](CCCCN)C(=O)CCl)cc1 [N-α-(p-Tosyl)-L-lysine chloromethyl ketone]
Hair Mass (mg) ± SEM, Treated (flank organ hair growth; [2]): 0.48 ± .11 mg
% Inhibition (hair growth) (flank organ hair growth; [3]): 81 ± 4%
inhibition of the hair follicle hexokinase activity (hair follicle hexokinase): 100%

O=C(O)C(=O)Cc1ccccc1 [Phenylpyruvic acid]
Hair Mass (mg) ± SEM, Treated (flank organ hair growth; [2]): 0.92 ± .21 mg
% Inhibition (hair growth) (flank organ hair growth; [3]): 54 ± 10%

O=C(CCc1ccc(O)cc1)c1c(O)cc(O)cc1O [Phloretin]
% Inhibition (hair growth) (flank organ hair growth; [5]): 35 ± 7%
Hair Mass (mg) ± SEM, Treated (flank organ hair growth; [5]): 1.34 ± .11 mg

O=C(O)COP(=O)(O)O [Phosphogylcolic acid]
Hair Mass (mg) ± SEM, Treated (flank organ hair growth; [2]): 0.57 ± .09 mg
% Inhibition (hair growth) (flank organ hair growth; [3]): 66 ± 5%
inhibition of the hair follicle phosphofructokinase activity ([1]; concentration of 0.9 mM): 45%

O=C(O)c1ccc2ccccc2n1 [Quinaldic Acid]
Hair Mass (mg) ± SEM, Treated (flank organ hair growth; [2]): 0.62 ± .08 mg
% Inhibition (hair growth) (flank organ hair growth; [3]): 69 ± 4%

O=C(O)c1cc(O)c2cccc(O)c2n1 [Xanthurenic acid]
% Inhibition (hair growth) (flank organ hair growth; [6]): 59 ± 4%
Hair Mass (mg) ± SEM, Treated (flank organ hair growth; [6]): 1.26 ± .13 mg

N#CC(=Cc1ccc(O)cc1)C(=O)O [α-Cyano-4-hydroxycinnamic acid]
Hair Mass (mg) ± SEM, Treated (flank organ hair growth; [2]): 0.87 ± .34 mg
% Inhibition (hair growth) (flank organ hair growth; [3]): 49 ± 17%
